Entries after “also recorded” stand apart in the source; their conditions may differ.
Tested on: water-immersion stress loaded rat (fatigue rat) model
Experiment: weight-loaded forced swimming test in ME/CFS animal model (water-immersion stress loaded fatigue rat)
Type: in vivo
Details: Slc:SD fatigue rat, compared to fatigue control group, hydrochloride
Text: A […] encephalomyelitis/chronic fatigue syndrome (ME/CFS)-improving effect by the administration of the compound (amiselimod hydrochloride) relating to the present invention was verified as follows according to the method of Tanaka et al. (Establishment and assessment of a rat model fatigue. Neuroscience letters 2003, 352: 159-162) using a water-immersion stress loaded rat (fatigue rat) model. The animal used was 9-week-old Slc:SD rat. The rats were bred (water-immersion breeding) for 6 days in a plastic cage (W: 445×D: 276×H: 204 mm) containing tap water (water temperature: 23±1° C.) to a height of 1.5 cm, and a weight-loaded forced swimming test was conducted. on the final day. In the weight-loaded forced swimming test, a rat with a weight equivalent to 8% of its body weight attached to its tail was placed in a circular water tank (diameter: 18 cm, height: 70 cm, water depth: 40 cm, water temperature: 23±1° C.), and the time from the start of swimming until the rat's nose sinks from the water surface for 20 seconds was measured. The weight-loaded forced swimming test was conducted blindly. Amiselimod hydrochloride (0.1, 0.3 and 1 mg/kg administration) was orally administered once a day for 6 days from the start date of the water-immersion breeding. As control groups, a normal control group for normal breeding and a fatigue control group for water-immersion breeding were set, and the vehicle (0.5% HPMC) was administered to both groups. The number of cases was 10 in each group.

CCCCCCCOc1ccc(CCC(N)(CO)CO)cc1C(F)(F)F.Cl [amiselimod hydrochloride, 2-amino-2-[2-(4-heptyloxy-3-trifluoromethylphenyl)ethyl]propane-1,3-diol hydrochloride]
swimming time in weight-loaded forced swimming test (0.1 mg/kg orally once a day for 6 days, 0.1 mg/kg): significant difference was observed; also recorded: significantly prolonged the swimming time
swimming time in weight-loaded forced swimming test (0.3 mg/kg orally once a day for 6 days, 0.3 mg/kg): significant difference was observed; also recorded: significantly prolonged the swimming time
swimming time in weight-loaded forced swimming test (1 mg/kg orally once a day for 6 days, 1 mg/kg): significant difference was observed; also recorded: significantly prolonged the swimming time
